Data from patent publication US20090105322A1, “PHARMACEUTICAL COMPOSITION COMPRISING VALSARTAN” (priority 2003, published 2009).

Legend:
[1] = test system: rapid pacing induced heart failure; assay: Rapid pacing induced heart failure model in mini pigs; type: in vivo; conditions: valsartan in combination with an ACE inhibitor, compared to either ACE inhibition or AT1-receptor blockade alone
From the text: The effect of valsartan alone and in combination with an ACE inhibitor was studied in a model of rapid pacing induced heart failure in mini pigs.

[2] = test system: AF occurrence in patients with symptomatic HF (EF<40% and dilated ventricle-LVIDD>2.9); assay: Occurrence of AF from adverse event reports in the Val-HeFT trial; type: in vivo, human
Method: The occurrence of AF was evaluated based on adverse event reports in the patients with symptomatic heart failure (ejection fraction<40% and dilated ventricle-left ventricular internal diastolic diameter (LVIDD)>2.9) enrolled in the Val-HeFT trial. The Val-HeFT trial is set forth in Example 2. The occurrence of AF was evaluated based on adverse event reports in the patients with symptomatic HF (EF<40% and dilated ventricle-LVIDD>2.9) enrolled in the Val-HeFT trial (set forth in Example 2). Patients were randomized to valsartan or placebo on top of the prescribed treatments for heart failure. During the 23 months of follow-up of the study, AF was reported in 328/5000 patients (6.6%), 132/2506 (5.27%) in the valsartan allocated patients and 196/2494 (7.86%) in those allocated to placebo (p=0.0002). […] This is a multicountry, randomized, double-blind, forced titration, parallel, placebo-controlled trial. Patients will be stratified according to their use of beta blockers at randomization. At Visit 2, patients who meet the randomization criteria will be stratified according to their use of beta blockers and randomized to receive either valsartan 40 mg b.i.d. or placebo (Level 1). After 2 weeks of treatment (Visit 3), patients will be titrated up to receive either valsartan 80 mg b.i.d. or placebo, respectively (Level 2). The criteria for titration are given below. Following another 2 week treatment period (Visit 4), patients will again be titrated up to receive valsartan 160 mg b.i.d. or placebo, respectively (Level 3). The criteria for titration are given below. Patients not tolerating the highest dose of valsartan will be titrated down to the next lower dose after 2 weeks of treatment (Visit 5).

[3] = test system: systolic and diastolic blood pressure in patients with essential arterial hypertension; assay: Treatment of patients with essential arterial hypertension; type: in vivo, human; conditions: 80 mg o.d.; compared with ACE inhibitors and other antihypertensive medications
From the text: Valsartan (CGP 48933) is an orally active, potent and specific competitive Ang II antagonist at the level of the AT1-receptor subtype.

[4] = test system: cardiac hemodynamics in CHF patients (NYHA Class II-IV); assay: Protocol 103: chronic central hemodynamic effects in non-ACE inhibitor treated CHF patients; type: in vivo, human; conditions: 40, 80 and 160 mg b.i.d. for 4 weeks; preliminary trial results
Method: Two Phase II studies (Protocols 103 and 104) have been recently completed. Protocol 103 is a randomized, double-blind, placebo-controlled, parallel group, dose ranging trial to determine the chronic central hemodynamic effects of valsartan 40 mg b.i.d., 80 mg b.i.d., 160 mg b.i.d. and lisinopril 10 mg o.d. administered for 4 weeks to non-ACE inhibitor treated CHF patients (NYHA Class II-IV).

CCCCC(=O)N(Cc1ccc(-c2ccccc2-c2nnn[nH]2)cc1)[C@H](C(=O)O)C(C)C [valsartan, (S)-N-(1-carboxy-2-methyl-prop-1-yl)-N-pentanoyl-N-[2; (1H-tetrazol-5-yl)biphenyl-4-yl-methyl]amine]
Left ventricular function and geometry, and myocyte inotropic response [1]: further beneficial effects on left ventricular function and geometry, and myocyte inotropic response | AF reported (percent of allocated patients) ([2]; 23 months of follow-up, valsartan on top of prescribed heart failure treatments, vs placebo 7.86%, p=0.0002): 5.27% | AF reported (patients with AF / patients allocated) ([2]; 23 months of follow-up, valsartan on top of prescribed heart failure treatments, vs placebo 196/2494): 132/2506 | Reduction of the incidence of AF ([2]; valsartan added to prescribed therapy (93% ACE-inhibitors, 35% beta-blockers)): ~35% | RR for AF occurrence (logistic regression analysis) ([2]; valsartan treatment as independent predictor, 95% CI: 0.52-0.82): 0.65 | Decreases in systolic and diastolic blood pressure [3]: comparable to those achieved by treatment with ACE inhibitors and other antihypertensive medications | Tolerability profile [3]: more favorable tolerability profile | Cardiac hemodynamics versus placebo [4]: clinically relevant and statistically significant improvements in cardiac hemodynamics versus placebo
